This is an account of results in ChEMBL document CHEMBL1201862, “PubChem BioAssay data set” (2004).

Calls of active or inactive are those of the source.

For one assay, the target named is T1, Hexokinase HKDC1 (Homo sapiens, UniProt Q2TB90).
T1 sequence (Q2TB90 whole entry): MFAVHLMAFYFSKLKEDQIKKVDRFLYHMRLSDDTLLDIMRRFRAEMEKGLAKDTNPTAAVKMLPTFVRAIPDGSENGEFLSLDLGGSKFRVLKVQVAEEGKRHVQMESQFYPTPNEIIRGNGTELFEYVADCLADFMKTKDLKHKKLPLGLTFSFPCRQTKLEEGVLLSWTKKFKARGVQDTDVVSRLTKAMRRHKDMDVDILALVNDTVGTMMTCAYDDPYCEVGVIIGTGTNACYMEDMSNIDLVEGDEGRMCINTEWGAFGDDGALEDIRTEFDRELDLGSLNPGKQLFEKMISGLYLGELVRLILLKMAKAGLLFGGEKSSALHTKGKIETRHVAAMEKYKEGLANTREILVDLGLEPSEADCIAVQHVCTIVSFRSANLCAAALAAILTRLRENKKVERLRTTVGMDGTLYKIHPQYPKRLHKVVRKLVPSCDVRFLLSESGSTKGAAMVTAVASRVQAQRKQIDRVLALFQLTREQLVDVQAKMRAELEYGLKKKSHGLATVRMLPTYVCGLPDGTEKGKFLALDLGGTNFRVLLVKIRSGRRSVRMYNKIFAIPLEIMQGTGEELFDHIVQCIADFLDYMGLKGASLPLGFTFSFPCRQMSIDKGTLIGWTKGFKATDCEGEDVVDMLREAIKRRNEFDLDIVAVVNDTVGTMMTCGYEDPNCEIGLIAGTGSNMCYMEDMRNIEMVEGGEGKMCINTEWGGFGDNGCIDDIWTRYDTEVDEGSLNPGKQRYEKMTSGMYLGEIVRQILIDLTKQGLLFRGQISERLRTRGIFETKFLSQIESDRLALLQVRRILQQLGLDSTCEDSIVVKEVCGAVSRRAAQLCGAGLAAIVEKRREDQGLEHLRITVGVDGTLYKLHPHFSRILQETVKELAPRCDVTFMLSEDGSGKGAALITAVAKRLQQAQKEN
As to the kind of experiment: HKDC1 hexokinase inhibitors, dose response, biochemical, W721R variant (AID 504729). It counts as functional.

In assay [1] the target is G-protein coupled receptor 55 (Homo sapiens, UniProt Q9Y2T6). As to the kind of experiment: GPR55 agonists via beta-arrestin recruitment, primary screen, imaging, U2OS cells, beta-arrestin-GFP redistribution (AID 1961). Type of assay: functional.
G-protein coupled receptor 55, sequence (Q9Y2T6 whole entry): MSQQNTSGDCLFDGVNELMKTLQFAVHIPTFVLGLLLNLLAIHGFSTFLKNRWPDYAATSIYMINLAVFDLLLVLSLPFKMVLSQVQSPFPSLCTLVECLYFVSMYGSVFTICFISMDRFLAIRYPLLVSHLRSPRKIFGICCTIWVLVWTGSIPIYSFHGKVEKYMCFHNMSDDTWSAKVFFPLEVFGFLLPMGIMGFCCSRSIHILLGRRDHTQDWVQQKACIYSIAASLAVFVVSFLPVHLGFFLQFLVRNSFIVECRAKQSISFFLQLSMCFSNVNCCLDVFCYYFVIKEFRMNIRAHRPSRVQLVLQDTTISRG
A short description of assay [2]: inhibitors of intracellular T. cruzi replication, confirmation, NIH3T3 host cells, beta-gal luminescence (AID 2044).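 Further: intracellular parasites grown in NIH/3T3 mouse fibroblasts as host cells; luminescent beta-galactosidase reporter signal from transgenic T. cruzi replicating inside host cells; inhibitors lower the luminescence signal.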 Type of assay: functional, cell-based.
Assay [3] is described as follows: cytotoxicity toward NIH3T3 fibroblasts, dose response, counter-screen, cell-based, ATP luminescence, mouse fibroblasts (AID 2010).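 Further: cells exposed to compound for about 90 hours before reading.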 It counts as functional. On the technique in general: Counterscreens check selectivity or assay interference.
Assay [4] has as its system HEK293. Nature of the assay: NOD1 signaling inhibitors, primary screen, cell-based, luminescence, uHTS (AID 1578). Type of assay: functional. The conditions noted are these: Homo sapiens.
Assay [5] deals with HEK293. Nature of the assay: cells. The following applies: Homo sapiens. Type of assay: functional, cell-based.
Assay [6] concerns HEK293. Nature of the assay: cells. The conditions noted are these: Homo sapiens. It counts as functional, cell-based. The source holds these as a separate data set.
Assay [7] has as its target Nucleotide-binding oligomerization domain-containing protein 2 (Homo sapiens, UniProt Q9HC29). Nature of the assay: NOD2 signaling inhibitors, cell-based, luminescence, uHTS, HEK293 (AID 1566). Type of assay: functional.
For assay [8], the system named is HEK293. Nature of the assay: NOD2 signaling inhibitors in MDP-stimulated cells, cell-based, uHTS, luminescence (AID 2001). The following applies: Homo sapiens. Type of assay: functional.
Assay [9] concerns HEK293. Nature of the assay: cells. It counts as functional, cell-based. The conditions noted are these: Homo sapiens. This is another data set of the same source.
Assay [10] is described as follows: Shn3 3'UTR reporter inhibitors, dose response, cell-based, Clone20 osteoblasts, firefly luciferase, cherry-picked (AID 624132).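 Further: firefly luciferase luminescence from reporter carrying the Shn3 3'UTR in osteoblasts.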 It counts as functional.
A short description of assay [11]: HepG2 cell cytotoxicity, dose response, cytotoxicity control for Shn3 inhibitor project, CellTiter-Glo, cherry-picked (AID 624134). It counts as functional, cell-based. Background: ATP-based viability assays read luminescence as a measure of living cells.
Assay [12] in a line: control 3'UTR Renilla luciferase suppression, dose response, counter-screen for Shn3 inhibitor project, cell-based, Clone20-Shn3RL, cherry-picked (AID 624133). Type of assay: functional.
The nature of assay [13]: ZM109 Env clade C HIV-1 fusion inhibitors, dose response, HeLa effector, CEM target cells, luciferase, cherry-pick (AID 652058). Type of assay: functional, cell-based.
The nature of assay [14]: inhibitors of clade B AD8 Env fusion, dose response, cell-based, cherry-pick (AID 652062).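 Further: luciferase signal from cell-cell fusion driven by HIV-1 clade B AD8 Env; potency is for inhibitors of fusion seen as a drop in luminescence.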 It counts as functional.
The target of assay [15] is Intestinal-type alkaline phosphatase (Homo sapiens, UniProt P09923). Nature of the assay: Dose Response confirmation of uHTS hits from a small molecule inhibitors of human intestinal alkaline phosphatase via a luminescent assay. [Related pubchem assays (depositor defined):AID2544, AID2574]. It counts as functional.
Intestinal-type alkaline phosphatase, sequence (P09923 whole entry): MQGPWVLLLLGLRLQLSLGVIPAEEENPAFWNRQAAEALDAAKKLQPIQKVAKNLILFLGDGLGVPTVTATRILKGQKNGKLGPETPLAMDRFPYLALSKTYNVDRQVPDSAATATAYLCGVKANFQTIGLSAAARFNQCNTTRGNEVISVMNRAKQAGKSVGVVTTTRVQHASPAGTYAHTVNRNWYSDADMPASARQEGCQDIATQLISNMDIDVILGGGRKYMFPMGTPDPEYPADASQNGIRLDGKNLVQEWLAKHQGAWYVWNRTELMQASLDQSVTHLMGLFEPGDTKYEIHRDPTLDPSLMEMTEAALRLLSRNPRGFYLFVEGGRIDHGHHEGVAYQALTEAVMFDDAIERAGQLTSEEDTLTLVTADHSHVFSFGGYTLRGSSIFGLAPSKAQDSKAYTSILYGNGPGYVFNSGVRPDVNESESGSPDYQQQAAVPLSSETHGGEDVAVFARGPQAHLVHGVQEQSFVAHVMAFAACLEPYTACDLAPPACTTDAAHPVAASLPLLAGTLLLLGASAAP

Nucleotide-binding oligomerization domain-containing protein 2, sequence (Q9HC29 whole entry, the tested form may be a part): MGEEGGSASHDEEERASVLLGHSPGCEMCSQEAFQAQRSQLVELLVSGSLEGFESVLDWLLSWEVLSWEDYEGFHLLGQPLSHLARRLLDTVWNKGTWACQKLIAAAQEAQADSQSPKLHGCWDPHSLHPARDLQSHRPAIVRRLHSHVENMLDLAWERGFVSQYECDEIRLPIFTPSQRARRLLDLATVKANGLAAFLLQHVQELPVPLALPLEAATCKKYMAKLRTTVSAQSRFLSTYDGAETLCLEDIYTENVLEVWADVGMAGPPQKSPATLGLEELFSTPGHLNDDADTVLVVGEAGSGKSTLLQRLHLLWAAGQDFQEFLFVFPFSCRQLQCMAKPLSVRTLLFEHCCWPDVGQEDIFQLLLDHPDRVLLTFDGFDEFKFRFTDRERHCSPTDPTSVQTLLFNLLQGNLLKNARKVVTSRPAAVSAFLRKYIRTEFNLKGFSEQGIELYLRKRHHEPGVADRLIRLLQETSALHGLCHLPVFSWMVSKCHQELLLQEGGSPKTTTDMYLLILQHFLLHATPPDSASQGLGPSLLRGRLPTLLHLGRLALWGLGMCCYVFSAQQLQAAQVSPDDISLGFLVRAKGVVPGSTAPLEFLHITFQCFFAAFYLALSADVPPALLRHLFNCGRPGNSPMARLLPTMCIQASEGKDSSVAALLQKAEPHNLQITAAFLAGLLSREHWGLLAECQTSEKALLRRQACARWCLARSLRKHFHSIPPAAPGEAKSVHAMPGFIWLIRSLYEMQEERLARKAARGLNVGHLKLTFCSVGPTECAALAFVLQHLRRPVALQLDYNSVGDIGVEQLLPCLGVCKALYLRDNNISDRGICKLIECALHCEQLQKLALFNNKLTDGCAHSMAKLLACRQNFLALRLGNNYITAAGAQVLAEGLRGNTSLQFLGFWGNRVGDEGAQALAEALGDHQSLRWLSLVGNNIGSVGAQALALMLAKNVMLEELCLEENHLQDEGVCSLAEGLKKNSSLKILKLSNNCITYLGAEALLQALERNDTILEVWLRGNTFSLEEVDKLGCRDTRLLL

What is called IC50 is the point on the concentration scale where inhibition reaches its midpoint. As for `COP(=O)(OC)c1ccc(NCc2cc(O)ccc2O)cc1`, on Hexokinase HKDC1, the IC50 is 9.51 µM (active).

The term EC50 denotes the concentration needed to bring the measured effect to its halfway point. As to `COc1ccccc1-n1cnc2cc(NCc3ccccc3O)ccc21`, in assay [1], the EC50 is 1.51 µM (active).

For the compound `Cn1c(SCC(=O)N2c3ccccc3Sc3ccccc32)nc2ccccc21`, the EC50 in assay [2] is 2.77 µM (active); in [3], > 30 µM (not active); in assay [1] it was 1.29 µM (active).

By AC50 is commonly meant the concentration giving half of the maximal activity seen. `Cc1sc2ncnc(N3CCN(S(=O)(=O)c4ccc(Br)cc4)CC3)c2c1C`: the values for the EC50 (with HEK293 [4]; in assay [7]) were 4.21 µM (active) and 4.22 µM (active), respectively. Moreover, the IC50 is 4.16 µM (active) with HEK293 [5], 11.6 µM (active) in the assay on HEK293 [6], 5.47 µM (active) in the assay with HEK293 [8] and > 20 µM (inactive) in the assay on HEK293 [9]. Also, the AC50 in [10] was 3.59 µM (active); in assay [11], 47.8 µM (active); in [12] it was 6.05 µM (active); in assay [13], 21.5 µM (active); in assay [14] it was 21.2 µM (active).

`COc1cc(/C=C2\SC(=S)N(N(C)c3ccccc3)C2=O)ccc1O`: in assay [15], the IC50 is 13.1 µM (inactive).
